Experimental data: patent US9611286B2, “Ruthenium carbon monoxide releasing molecules and uses thereof” (Alfama, Inc., priority 2011, dated 2017)

Legend:
Hen Egg White Lysozyme C = molecular target: T1, Hen Egg White Lysozyme C (Gallus gallus, UniProt P00698); assay: Hen egg white lysozyme (HEWL) assay, reactivity with proteins by LC-MS; type: binding; details: 10 equiv in H2O, room temperature, 10 minutes and 1 hour
T1 construct: one corresponding to the mass of native lysozyme (14305=calculated mass); from tissue; host or cells: hen egg white
Description: The hen egg white lysozyme (HEWL) assay was used to assess the reactivity of Compound 1 in the presence of proteins (see, e.g., Santos-Silva, T. et al. J Am Chem Soc (2011) 133, 1192-1195). This paper describes the interactions of CORM-3 with plasma proteins. CORM-3 reacts rapidily with proteins, losing chloride ion, glycinate, and one CO ligand. […] It was observed that CORM-3 reacts faster and has a much weaker efficacy than Compound 1 in this ECM treatment.
Liquid chromatography-mass spectrometry (LC-MS) was performed on a Micromass Quattro API instrument (ESI-TOF-MS) coupled to a Waters Alliance 2795 HPLC using a MassPREP On-Line Desalting Cartridge. […]
Hen Egg White Lysozyme C (PDB code 3b61; UniProtKB/Swiss-Prot code P00698). […] Quantitative determination of lysozyme-ligand binding in the solution and gas phases by electrospray ionisation mass spectrometry follows Veros et al., Rapid Commun. […] A 50 μL aliquot was analyzed by LC-MS (calculated average isotopic mass of the egg white lysozyme=14305.1).
Santos-Silva and co-workers previously describe CORM-3's reactivity towards proteins and formation of a Ru(II) dicarbonyl-lysozyme complex (see, e.g., Santos-Silva et al., J. Am. Chem. Soc. (2011) 133:1192-1195). […] 50 μL aliquots were collected and analyzed by LC-MS over the reaction time (10 minutes and 1 hour). […]

CD8β = assay: CD8-β-chain mRNA expression in brain by qRT-PCR; type: in vivo, C57BL/6 mice
Procedure: (§1) Mice were sacrificed, when infected control mice presented signs of ECM, and perfused intracardially with PBS to remove circulating RBC and leukocytes from the organs. RNA was isolated from brains, livers and lungs using Trizol Reagent (Invitrogen, Life technologies), according to the manufacturer's recommendation. The synthesis of the first-strand cDNA from the RNA templates was carried out using the Transcriptor First Strand cDNA Synthesis Kit (Roche). RT-PCR reactions were performed in the presence of SYBER Green (SYBER Green PCR master mix, Applied Biosystems) on an ABI PRISM 7500Fast (Applied Biosystem). Oligonucleotides used for the specific amplification of genes include:
(§2) The relative changes in gene expression between experimental and control groups were calculated by the Pfaffl method using hprt as internal control gene. Statistical Analysis

IFN-γ = IFN-γ mRNA expression in brain by qRT-PCR; type: in vivo, C57BL/6 mice
Procedure: as §1, §2

P. berghei ANKA = assay: Malaria-associated acute lung injury (M-AALI) model; type: in vivo, DBA/2 mice; details: i.v. twice daily between days 2 and 4 after infection
Description: The M-AALI model, based on the infection of DBA-2 mice with P. berghei ANKA, is characterized by dyspnea, airway obstruction, hypoxemia, pulmonary exudate and elevated VEGF levels in plasma, followed by death between days 7 and 12 after infection.
Red blood cells infected with green fluorescent protein (GFP)-transgenic P. berghei ANKA and P. berghei ANKA was used to infect mice (see, e.g., Franke-Fayard et al. Mol Biochem Parasitol (2004) 137:23-33). Cryopreserved parasites were passed once through C57BL/6 or DBA-2 mice before being used to infect experimental animals. […] The infected mice were monitored daily for clinical symptoms of experimental cerebral malaria (ECM) including hemi- or paraplegia, head deviation, tendency to roll over on stimulation, ataxia and convulsions, or ALI, including dyspnea. […] Parasitemia was assessed by flow cytometry for mice infected with GFP-expressing P. berghei ANKA, using tail blood, as previously described (see, e.g., Pamplona et al., Nat Med (2007) 13:703-710). Mean parasitemia is expressed as percentage of infected red blood cells. For mice infected with non-GFP P. berghei parasitemia was assessed daily by microscopic counting of Giemsa-stained thin blood smears. Mean parasitemia is expressed as percentage of infected red blood cells. Survival is expressed as percentage. […]

T1 sequence (P00698 19-147): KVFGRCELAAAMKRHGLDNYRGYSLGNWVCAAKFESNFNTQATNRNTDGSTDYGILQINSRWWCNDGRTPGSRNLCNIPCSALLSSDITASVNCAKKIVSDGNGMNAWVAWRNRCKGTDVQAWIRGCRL

Compound: C[SH]([C@@H]1OC(CO)[C@H](O)[C@H](O)C1O)[Ru]([Cl])([Cl])([CH]=O)([CH]=O)[CH]=O (stereo partly shown) [Compound 1, Tricarbonyldichloro(methylthiogalactopyranoside) Ru(II)]
- reactivity with HEWL (adduct formation) (Hen Egg White Lysozyme C): forms protein-Ru^II(CO)2 adducts but reacts slower than CORM-3
- CD8-β-chain mRNA expression in the brain vs Compound 2-treated mice (CD8β): significantly lower
- IFN-γ mRNA expression vs infected Compound 2-treated mice (IFN-γ): reduced
- mice that developed M-AALI (P. berghei ANKA): None
